In one experiment the test system is CEM. Nature of the experiment: Cell growth inhibition assay, CEM. To be noted: Homo sapiens, CCRF-CEM, acute lymphoblastic leukemia, 72 h viability assay, Alamar Blue, mean of 3 ± SEM, read-out: IC50 (inhibition of cellular proliferation). In kind it is cell-based. The method, then:
(§1) Cells were plated at a density of between 500 to 5000 cells per well for adherent cell lines depending on doubling time, and 15,000 cells per well for lymphoblastic leukemia cell lines, in a 96-well plate in 200 μl of growth media. Plates were incubated overnight at 37 °C before adding the inhibitors. Inhibitors were serially diluted from the stock solutions in complete medium and added to the cells. Incubation in the presence of inhibitors was continued for […]. Cell viability was assessed by the AlamarBlue (Invitrogen) or CellTiterBlue/Glo (Promega) method according to manufacturer’s instructions. The curve fits and IC50 values were generated in PRISM (GraphPad, San Diego, CA).
Parental human lymphoblastic leukemia cells (CEM) and their drug resistant derivatives (dEpoB30 and dEpoB300) were cultured in the presence of increasing amounts of WEHI-7326, paclitaxel or epothilone B. Cell survival was determined as described in Experimental Procedures. Shown are mean of 3 experiments +/- SEM. Dose response curves were fitted in PRISM using non-linear regression (4 parameter logistic) to calculate IC50 values.
In general terms: Resazurin is reduced to fluorescent resorufin, in cell work by metabolically active cells.

The next experiment relates to SW480. Nature of the experiment: Cell growth inhibition assay, SW480. In kind it is cell-based, human. The method, then:
as §1
a Chemical structures of the triazine-based anti-mitotics used in this study. b Dose-dependent antiproliferative activity of key derivatives and comparison with commonly used anti-mitotics in SW480 cell line: Data shown is cell viability (as measured by CellTiterGlo) after 72 h relative to untreated control cells. Shown is mean of 3 independent experiments performed in duplicate +/- SEM. c Dose-dependent cell cycle analysis of key derivatives of WEHI-7326 development in SW480 cell line. Data are presented as percentage of cells in G2/M or subG0 after 24 h incubation with titration of inhibitors as assessed by PI staining and flow cytometry. Mean average of 3 experiments +/- SEM. d Comparison of IC50 and EC50 values of triazine compounds and anti-mitotic drugs in SW480 cell line: inhibition of cellular proliferation and cell cycle arrest in G2/M. IC50 and EC50 values are the mean of 3 independent experiments run in duplicates +/- SEM (n.d. = not determined). e HepG2 cytotoxic assay: cell viability assay after 48 h, normalised to 0.4% DMSO (100% viability) and 2 μM bortezomib (0% viability). The data is the mean average of 2 experiments +/- SD.

For another experiment, the system named is 134197 HGSOC PDX. Nature of the experiment: HGSOC PDX model 134197. In kind it is in vivo, NSG mice. Particulars: 134197 cisplatin-resistant PDX; 20 mg/kg i.v. biweekly, 6 weeks. The protocol:
(§2) Two to three mm ovarian tumor fragments were subcutaneously engrafted in the left flank of NSG mice and monitored by physical palpation for tumor growth and engraftment. Engrafted tumors were measured twice a week using digital Vernier calipers and maximum tumor diameter + perpendicular tumor length were digitally recorded into the Study Director software (v 3.0/4.0 StudyLog). Tumor volume was calculated automatically (tumor volume (mm^3) = 0.5236 x [larger diameter (mm) x smaller diameter (mm)^2]). Mice were randomized to treatment once their tumor volume reach 180–300 mm^3 and tumor measurements were performed twice a week up to 120 days or when the tumor volume reaches 700 mm^3.
(§3) Time to progressive disease (PD): Defined as the time (in days) from beginning of treatment to an increase in average tumor volume of >20% from the nadir (taken as the smallest average tumor volume recorded since treatment started or 200 mm^3 if nadir was <200 mm^3 as lesions smaller than this are difficult to measure with accuracy). Median time to harvest (TTH): Defined as the time (in days) from the beginning of treatment to day of harvest at 700 mm^3 and the median TTH was calculated and plotted using Kaplan-Meier curves. Based on ref. [27]. […]

Experiment [1] deals with MDA-MB-231 LNA DRE (docetaxel resistant breast cancer) xenograft. Nature of the experiment: Orthotopic MDA-MB-231 LNA-DRE xenograft. It is filed as in vivo, Balb/c nude mice. Particulars: docetaxel 10 mg/kg weekly i.v., WEHI-7326 30 mg/kg biweekly i.v. The method, then: LoVo (4 × 10^6), PC3 (3 × 10^6) or MDA-MB-231 LNA DRE (10^6) cells were collected by trypsination and injected with 50 μl 1:1 PBS:Matrigel (v/v) subcutaneously on the right flank of 18 female (LoVo), 40 male (PC3) or into 4th mammary fat pad of 40 female (MDA231) Balb/c nude mice. Tumor growth was monitored and average tumor size at commencement of dosing was 100 mm^3. Mice were randomized into 3 arms of each 5 (LoVo), 10 (PC3) or 12 (MDA23) mice respectively and treatment with vehicle (saline), WEHI-7326 (biweekly) or docetaxel (weekly) was administered via tail vein injection. Tumor volumes were measured at least twice weekly with calipers and the experiments were terminated when tumors in the control group started exceeding 1500 mm^3. For LoVo, both vehicle and 25 mg/kg WEHI-7326 groups were harvested 24 h, but 20 mg/kg WEHI-7326 group harvested 1 h post final dose. For PC3, docetaxel group was not harvested in an attempt to grow out resistant tumors.

Experiment [2] concerns H1437 (non-small cell lung carcinoma) xenograft. Nature of the experiment: H1437 tumor xenograft in nude mice. To be noted: i.p. three times weekly. In kind it is in vivo, BALB/c nude mice. The method, then:
Tumor cell lines LIM2537, U87MGΔ2–7EGFR or H1437 were collected by trypsinization, counted and injected at 5 × 10^6 cells/ site subcutaneously on both flanks of BALB/c nude mice. Treatment with vehicle control or WEHI-7326 at given dose was initiated after 5 days. Drug or vehicle (100 μl) was injected intraperitoneally three times weekly. Control group and treatment group consisted of 8 mice each. Tumors were measured twice weekly with calipers. Tumor volumes were estimated using the modified ellipsoid formula V = 1/2 (length × width^2). The experiments were terminated when tumors in the control group started ulcerating or exceeded 17 mm in length, in line with the LICR/DoS Animal Ethics Committee guidelines (11/05 A).

The test system of the next experiment is 134169 HGSOC PDX. The experiment in a line: HGSOC post-chemo PDX model 134169. In kind it is in vivo, NSG mice. To be noted: 134169 post-taxane, cisplatin-refractory PDX; 20 mg/kg i.v. twice a week, 6 weeks. The method, then: as §2, §3

Turning to `COc1ccc(CNc2nc(NCc3ccc(CN)cc3)nc(NN3CC(=O)NC3=O)n2)cc1` [WEHI-7326], the IC50 in the experiment with CEM was found to be 3.99 ± 0.04 nM. Besides, the IC50 in the experiment with SW480 (Homo sapiens, SW480, colon carcinoma, 72 h viability assay, CellTiterGlo, mean of 3 ± SEM, read-out: IC50 (inhibition of cellular proliferation)) came out at 39.5 ± 4.1 nM. For the same compound, the “Potency relative to myoseverin B” value with SW480 (SW480) is listed as “almost ten-fold”. The Concentration inhibiting proliferation result in the experiment on SW480 (SW480 colon cancer cell line in vitro) is reported as “at or below micromolar concentration”. In addition, in the experiment on 134197 HGSOC PDX, the “Median time to harvest (TTH)” value came to 92 days and the “Time to progressive disease (PD)” value came out at 35 days. Further, the “Tumor growth inhibition (TGI)” value in experiment [1] worked out at 105%. Also, the Tumor growth entry in experiment [2] is on record as “effective in reducing tumor growth”. The Tumor response entry in the experiment with 134169 HGSOC PDX was “ineffective”.

(Values after publication PMC7955127, “Preclinical small molecule WEHI-7326 overcomes drug resistance and elicits response in patient-derived xenograft models of human treatment-refractory tumors” (Cell Death & Disease, 2021).)
